Test results taken from patent US20100010098A1, “POLYMORPHS OF RASAGILINE HYDROCHLORIDE” (priority 2008, published 2010).
Where a name gives a salt, the structure may show the parent alone. Read-outs that look alike come from different tables or passages of the source.

How the values were obtained:
[1] = after storage for 4 weeks at 55° C./90% relative humidity
[2] = solid state; suspension with a liquid; compared with Form I
Protocol: 9 mg of rasagiline HCl Form I was suspended in 0.15 ml 2-PrOH and stirred for 11 days at 70° C.
b) 50 mg of rasagiline HCl Form I was suspended in 0.23 ml 2-PrOH and stirred for 7 days at 5° C.
20 mg of Form II was added to a suspension of 1.49 g Form III in 6 ml 2-PrOH. After 4 days solid material was isolated by filtration, washed with diethyl ether and was dried overnight at 40° C. in vacuo.

With `C#CCN[C@@H]1CCc2ccccc21` [Form II rasagiline hydrochloride, rasagiline hydrochloride] the “Chemical Purity (HPLC)” value ([1]; hydrochloride) was 100%, the “Color Change” value ([1]; hydrochloride) was “No” and the Water uptake ([1]; hydrochloride) was “No”. For the same compound, the “relative stability of the polymorphic form” value [2] was “more stable in the solid state than the crystalline Form I”.

In the case of `C#CCN[C@@H]1CCc2ccccc21` [rasagiline mesylate, reference compound], the “Chemical Purity (HPLC)” value [1] is reported as 97.1%, the “Color Change” value [1] is reported as “Yes, brown color” and the Water uptake [1] is reported as “Yes”.
